From US11931346B2, “Uses of 4′-desferrithiocin analogs” (University of Florida Research Foundation, Incorporated, priority 2011, dated 2024)
Where two headings read alike, the source gives them in different places.

Tests used:
[1] = test system: acetic acid-induced colitis in rats; experiment: Prevention of acetic acid-induced colitis in a rat model; type: in vivo, Sprague-Dawley rats; conditions: DFO 20 mg/kg 30 minutes before 4% acetic acid (FIG. 1)
Protocol: Induction of colitis. Male Sprague-Dawley rats (250-350 g) were anesthetized with sodium pentobarbital, 55 mg/kg intraperitoneally. The abdomen was shaved and prepared for surgery. A midline incision was made, and the cecum and proximal colon were exteriorized. A reversible suture was placed at the junction of the cecum and proximal colon. The colon was rinsed with saline (10 ml), and the fluid and intestinal contents were gently expressed out the rectum. A gum-based rectal plug was inserted. The compound of interest, or distilled water in the control animals (2 ml), was injected intracolonically just distal to the ligature. The cecum and proximal colon were returned to the abdominal cavity; the compound was allowed to remain in the gut for 30 min. Then, the cecum and proximal colon were exteriorized again. The rectal plug was removed, and the drug was gently expressed out of the colon. […] The entire length of the colon was removed and assessed for damage both densitometrically and biochemically.
Quantitation of acetic acid-induced colitis. Gross damage was quantitated using Photoshop-based image analysis (version 5.0, Adobe Systems, Mountain View, Calif., USA) on an Apple iMac computer. […] The cursor was then placed on the histogram, the color range determined in an earlier step was selected, and the number of pixels encompassing that range and the percent damage were quantitated automatically.

[2] = Apparent partition coefficient (LogPapp) of DFT analogs; type: physicochemical
[3] = Concentration of DFT analogs in rat plasma and cerebrospinal fluid after PO or SC dose; type: in vivo, Sprague-Dawley rats; conditions: rats, PO 300 μmol/kg, monosodium salt
Protocol: Adult male Sprague-Dawley rats (450-500 g) were used. The rats were not fasted. A sample solution of a monosodium salt of (S)-4′-(HO)-DADFT-norPE (III-A) or (S)-4′-(HO)-DADFT-PE (IV-A) was administered to the rats at an oral or subcutaneous dose of 300 μmol/kg. Concentrations of the DFT analogs in the plasma and cerebrospinal fluid of the rats were measured at 0.5 hour, 1 hour, 2 hours, 4 hours, and 8 hours post administration.

[4] = Concentration of DFT analogs in rat plasma and eyes after SC dose, rats not perfused; type: in vivo; conditions: non-perfused rats, SC 300 μmol/kg, one hour post dose; for Concentration in the eye: entire eye; for concentration at 1 h: rat, plasma
Protocol: (§1) Rats were anesthetized with ketamine/xylazine about 50 minutes after dosing. Blood of the rats was collected via cardiac puncture into vacutainer tubes containing buffered sodium citrate one hour post dose. The rats' eyes were removed. Any extraneous tissue was trimmed and discarded. The eyes were frozen. The entire eye was then processed and assessed for the concentration of the DFT analog. The whole blood was centrifuged, and the plasma was separated and frozen until the concentration of the DFT analog was determined.

[5] = Concentration of DFT analogs in rat plasma and eyes after SC dose, rats perfused with saline; type: in vivo; conditions: SC 300 μmol/kg, one hour post dose; for concentration at 1 h: rat, plasma, rats perfused with saline; for Concentration in the eye: rats perfused with saline (about 100 ml, 5 minutes), entire eye
Protocol: as §1, with “dose. The rats' abdomen and thorax were opened, and a portion of the sternum/ribs was removed. A 19-gauge needle was inserted into the left ventricle of the rats, and the right atrium was cut. About 100 ml of saline was perfused transcardially for five minutes. The perfusion was stopped, and the rats' eyes” for “dose. The rats' eyes”

[6] = male, Sprague-Dawley, rat, cerebrospinal fluid, read-out: Concentration in cerebrospinal fluid
[7] = male, Sprague-Dawley, rat, plasma, read-out: Concentration in plasma
[8] = male, Sprague-Dawley, rat, plasma, 1 h, read-out: Concentration in plasma
[9] = male, Sprague-Dawley, rat, plasma, 2 h
[10] = male, Sprague-Dawley, rat, plasma, 4 h, read-out: Concentration in plasma

SMILES	Prevention of acetic acid-induced colitis [1]	LogPapp [2]	concentration at 0.5 h [3, 6]	concentration at 1 h ([3]; male, Sprague-Dawley, rat, cerebrospinal fluid, 1 h, read-out: Concentration in cerebrospinal fluid)	concentration at 4 h ([3]; male, Sprague-Dawley, rat, cerebrospinal fluid, 4 h, read-out: Concentration in cerebrospinal fluid)	concentration at 8 h ([3]; male, Sprague-Dawley, rat, cerebrospinal fluid, 8 h)	concentration at 0.5 h [3, 7]	concentration at 1 h [3, 8]	concentration at 2 h [3, 9]	concentration at 4 h [3, 10]	Concentration in cerebrospinal fluid ([3]; 2 h)	Concentration in plasma ([3]; 8 h)	Concentration in the eye [4]	concentration at 1 h [4]	concentration at 1 h [5]	Concentration in the eye [5]	Concentration in cerebrospinal fluid ([3]; 1 h)	Concentration in cerebrospinal fluid ([3]; 4 h)	Concentration in cerebrospinal fluid ([3]; 8 h)
CC(=O)N(O)CCCCCNC(=O)CCC(=O)N(O)CCCCCNC(=O)CCC(=O)N(O)CCCCCN [DFO, desferrioxamine]	prevent acetic acid-induced colitis in rats																		
COCCOCCOc1ccc(C2=N[C@@](C)(C(=O)O)CS2)c(O)c1 [III-A, (S)-4′-(HO)-DADFT-norPE]		−0.89	8.07 ± 3.09 µM	5.7 ± 2.74 µM	0 µM	0 nM	424 ± 60 µM	219 ± 19 µM	30 ± 5 µM	2 ± 0.4 µM	2.32 (only 1 out 3 animals μM	trace	25.8 ± 6.0 nmol/g wet weight of the eye	218 ± 16 µM	218 ± 51 µM	17.2 ± 5.5 nmol/g wet weight of the eye			
COCCOCCOCCOc1ccc(C2=N[C@@](C)(C(=O)O)CS2)c(O)c1 [IV-A, (S)-4′-(HO)-DADFT-PE]		−1.10	2.14 ± 1.01 µM				142 ± 57 µM	64 ± 7 µM	32 ± 20 µM	2 ± 0.5 µM	trace	trace					trace	trace	trace
COc1ccc(C2=N[C@@H](C(=O)O)CS2)c(O)c1 [V-A]		−0.89											37.8 ± 4.3 nmol/g wet weight of the eye	701 ± 32 µM	663 ± 42 µM	29.7 ± 4.3 nmol/g wet weight of the eye			
